Assay results taken from PMC6270759, “Constituents of the Roots and Leaves of Ekebergia capensis and Their Potential Antiplasmodial and Cytotoxic Activities” (Molecules, 2014).
Read-outs that look alike come from different tables or passages of the source. Marks after values point to notes of the source that are not given here.

What was measured:
[1] = system: chloroquine-sensitive D6 strain of P. falciparum; assay: In vitro antiplasmodial assay, (G-3H) hypoxanthine incorporation, D6 strain; assay type: cell-based; conditions: Plasmodium falciparum
Method: (§1) Continuous in vitro cultures of asexual erythrocytic stages of Indochinese chloroquine-resistant W2 and Sierra Leonean chloroquine-sensitive D6 strains of P. falciparum were maintained following the modified procedure described by Trager and Jensen. Drug assay was carried out following a modification of the semiautomated microdilution technique, which measures the ability of the extracts to inhibit the incorporation of (G-^3H) hypoxanthine into the malaria parasite. […] Data was transferred into the software Microsoft Excel and was expressed as the percentage of the untreated controls. The drug concentration required for 50% inhibition of (G-^3H) hypoxanthine incorporation into parasite nucleic acid was calculated with nonlinear regression analysis of the dose-response curve.

[2] = system: mouse breast cancer (4T1) cells; assay: MTT cytotoxicity assay, 4T1 cells; assay type: cell-based; conditions: 4T1, 48 h, pure compounds
From the text: (§2) This assay is based on the ability of a mitochondrial dehydrogenase enzyme from viable cells to cleave the tetrazolium rings of the pale yellow MTT and thereby form dark blue formazan crystals, which are largely impermeable to cell membranes, resulting in their accumulation within healthy cells. The amount of generated formazan is directly proportional to the number of cells. […] Cells were maintained in Eagle’s Minimum Essential Medium (MEM) containing 10% fetal bovine serum (FBS). A cell density of 20.000 cells per well in 100 μL were seeded on 96-well plates and incubated for 12 h at 37 °C and 5% CO2 to attach to the surface. […] The plates were incubated for 48 h at 37 °C and 5% CO2, followed by an addition of 10 µL MTT viability indicator reagent. The plates were incubated for additional 4 h at the same conditions. Next, all media was removed from the plates and 100 µL DMSO was added to dissolve the formazan crystals. The plates were read on a Multiskan EX Labsystems scanning multi-well spectrophotometer at 562 nm, and 620 nm as reference. The results were recorded as optical density (OD) per well at each drug concentration. The data was transferred into the software Microsoft Excel and expressed as percentage of the untreated controls.

[3] = system: African monkey kidney (vero) cells; assay: MTT cytotoxicity assay, vero cells; assay type: cell-based; conditions: Primates, 48 h, read-out: IC50 Vero
From the text: as §2

[4] = system: human larynx carcinoma (HEp2) cells; assay: MTT cytotoxicity assay, HEp2 cells; assay type: cell-based; conditions: HEp-2, pure compounds, 48 h
Method: (§3) A rapid colorimetric assay was carried out using 3-(4,5-dimethylthiazol-2-yl)-2,5-diphenyltetrazolium bromide (MTT). This assay is based on the ability of a mitochondrial dehydrogenase enzyme from viable cells to cleave the tetrazolium rings of the pale yellow MTT and thereby form dark blue formazan crystals, which are largely impermeable to cell membranes, resulting in their accumulation within healthy cells. The amount of generated formazan is directly proportional to the number of cells. In this assay, the mammalian cell lines African monkey kidney (vero), mouse breast cancer (4T1) and human larynx carcinoma (HEp2) were used. Cells were maintained in Eagle’s Minimum Essential Medium (MEM) containing 10% fetal bovine serum (FBS). A cell density of 20.000 cells per well in 100 μL were seeded on 96-well plates and incubated for 12 h at 37 °C and 5% CO2 to attach to the surface. Samples of the tested extracts and isolated compounds were added to the cultured cells in rows H-B over a concentration range of 0.14 to 100 μg/mL, whereas wells 1–8 of row A served as untreated controls and wells 9–12 as blank (1% DMSO, v/v). The plates were incubated for 48 h at 37 °C and 5% CO2, followed by an addition of 10 µL MTT viability indicator reagent. The plates were incubated for additional 4 h at the same conditions. Next, all media was removed from the plates and 100 µL DMSO was added to dissolve the formazan crystals. The plates were read on a Multiskan EX Labsystems scanning multi-well spectrophotometer at 562 nm, and 620 nm as reference. The results were recorded as optical density (OD) per well at each drug concentration. The data was transferred into the software Microsoft Excel and expressed as percentage of the untreated controls. Percentage cytotoxicity (PC) as compared to the untreated controls was calculated as PC = [A − B/A] × 100, where A is the mean OD of the untreated cells and B is the mean OD at each drug concentration. The drug concentration required for 50% inhibition of cell growth was estimated using nonlinear regression analysis of the dose- response curve.

[5] = system: chloroquine-resistant W2 strain of P. falciparum; assay: In vitro antiplasmodial assay, (G-3H) hypoxanthine incorporation, W2 strain; assay type: cell-based; conditions: Plasmodium falciparum, pure compounds
Method: as §1

vero cells = assay: Interaction of oleanonic acid (2) with other triterpenoids, fixed ratios, vero cell cytotoxicity; assay type: cell-based, African monkey; conditions: for IC50: Primates, ratio 0:1, in the absence of 2 (for 2: alone), read-out: IC50 (μg/mL), substance alone; for ∑FIC 1:1: ratio of oleanonic acid (2) versus constituent 1:1; for ∑FIC 1:3: ratio of oleanonic acid (2) versus constituent 1:3; for ∑FIC 3:1: ratio of oleanonic acid (2) versus constituent 3:1
From the text: as §3, with “This” for “A rapid colorimetric assay was carried out using 3-(4,5-dimethylthiazol-2-yl)-2,5-diphenyltetrazolium bromide (MTT). This”, “In this assay, the mammalian cell lines African monkey kidney (vero), mouse breast cancer (4T1) and human larynx carcinoma (HEp2) were used.” left out, “Samples of the tested extracts and isolated compounds were added to the cultured cells in rows H-B over a concentration range of 0.14 to 100 μg/mL, whereas wells 1–8 of row A served as untreated controls and wells 9–12 as blank (1% DMSO, v/v).” left out, “curve. The interaction of oleanonic acid (2) with other triterpenoids was studied using the fixed concentration ratios oleanonic acid: ‘other triterpenoid’ 0:1, 1:3, 1:1, 3:1, 1:0. The vero cell cytotoxicity assay was used, as described above, to evaluate the toxicity of the mixtures. To determine whether there was synergy, additive effect or antagonism, the sum of fractional inhibition concentration (∑FIC) was calculated using the formula Ax/Ay + Bx/By = K, where Ax and Bx are the IC50s when the substances are used in combination, and Ay and By are the IC50s, when the substances are used alone. The data was scored with the scale ∑FIC < 1: synergism, 2 > ∑FIC ≥ 1: additive, 4 > ∑FIC ≥ 2: slight antagonism, ∑FIC ≥ 4: marked antagonism.” for “curve.”

[6] = system: MDA-MB-231 human breast cancer cells; assay: Alamar Blue cytotoxicity assay, MDA-MB-231 cells; assay type: cell-based; conditions: pure compounds, 72 h
Method: Cytotoxicity tests on MDA-MB-231 cells were carried out following a previously described procedure. MDA-MB-231 human breast cancer cells were cultured in Dulbecco’s modified eagle medium (DMEM) supplemented with 10% (v/v) fetal bovine serum, 2 mM L-glutamine, 100 units/mL penicillin and 100 μg/mL streptomycin at 37 °C in humidified 5% CO2. For cytotoxicity assays, cells were seeded in 96-well plates at optimal cell density (10,000 cells per well) to ensure exponential growth for the duration of the assay. After a 24 h preincubation growth, the medium was replaced with experimental medium containing the appropriate drug concentrations or vehicle controls (0.1% or 1.0% v/v DMSO). After 72 h of incubation, cell viability was measured using Alamar Blue reagent (Invitrogen Ab, Lidingö, Sweden) according to the manufacturer’s instructions. Absorbance was measured at 570 nm with 600 nm as a reference wavelength. Results were expressed as the mean ± standard error for six replicates as a percentage of vehicle control (taken as 100%). Experiments were performed independently at least six times. Statistical analyses were performed using a two-tailed Student’s t-test. p < 0.05 was considered to be statistically significant.

[7] = system: 3D7 strain of P. falciparum; set-up: method as in PMID 14598212; conditions: cited from earlier work
[8] = pure compounds, P. falciparum D6, mean of at least three independent experiments, read-out: IC50 D6

Structure (SMILES)	IC50 [1, 8] [µM]	IC50 [5] [µM]	IC50 ([1]; D6, read-out: IC50(D6)) [µM]	IC50 [2] [µM]	IC50 ([3]; vero cells, MTT) [µM]	IC50 [4] [µM]	IC50 (vero cells) [µg/mL]	IC50 [6] [µM]	Interaction with the cytotoxic effect of oleanonic acid (2), in words (vero cells)	∑FIC 1:1 (vero cells)	∑FIC 1:3 (vero cells)	∑FIC 3:1 (vero cells)	in vitro antiplasmodial activity against 3D7, in words [7]	IC50 ([3]; Vero) [µM]
COC(=O)C[C@H]1C(C)(C)[C@H](O)[C@@H]2CC3=C4CC(=O)O[C@@H](c5ccoc5)[C@]4(C)CC[C@@H]3[C@@]1(C)C2=O [Compound 8, proceranolide]	84.7 ± 0.8	150 ± 3	–	> 213	> 213	> 213	–	–	–	–	–	–	–	–
CC1(C)CC[C@]2(C(=O)O)CC[C@]3(C)C(=CC[C@@H]4[C@@]5(C)CC[C@H](O)C(C)(C)[C@@H]5CC[C@]43C)[C@@H]2C1 [Compound 4, oleanolic acid]	49.6 ± 2.3	82.7 ± 2	–	118 ± 2.6	112 ± 5.1	134.9 ± 0.7	40.3	39.82 ± 0.03	slight antagonistic effect	4.7 ^c	3.3 ^c	3.6 ^c	moderate	–
CC(=CCCC=C(C)CCC=C(C)CCC(O)C(C)(O)CO)CCC=C(C)CCC(O)C(C)(C)O (centres unmarked) [Compound 6, 2-hydroxymethyl-2,3,22,23-tetrahydroxy-6,10,15,19,23-pentamethyl-6,10,14,18-tetracosatetraene]	27.1 ± 0.4	66.9 ± 0.6	–	30.2 ± 1.3	35.7 ± 2.1	38.4 ± 0.8	13.6	36.69 ± 0.04	weak antagonistic effects	2.2 ^c	2.2 ^c	2.3 ^c	–	–
CC(=CCCC=C(C)CCC=C(C)CCC(O)C(C)(C)O)CCC=C(C)CCC(O)C(C)(C)O (centres unmarked) [Compound 7, 2,3,22,23-tetrahydroxy-2,6,10,15,19,23-hexamethyl-6,10,14,18-tetracosatetraene]	56.1 ± 0.4	64.3 ± 1	–	22.5 ± 3.2	24.7 ± 1.8	35.5 ± 3.1	11	> 209	weak antagonistic effects	1.9 ^c	2 ^c	2.2 ^c	–	–
O=c1c(O[C@@H]2O[C@H](CO)[C@@H](O)[C@H](O)[C@H]2O)c(-c2ccc(O)cc2)oc2cc(O)cc(O)c12 [Compound 9, kaempferol-3-O-β-D-glucopyranoside]	97.1 ± 1	105.8 ± 0.5	–	> 223	> 223	> 223	–	> 223	–	–	–	–	–	–
O=c1c(O[C@@H]2O[C@H](CO)[C@@H](O)[C@H](O)[C@H]2O)c(-c2ccc(O)c(O)c2)oc2cc(O)cc(O)c12 [Compound 10, quercetin-3-O-β-D-glucopyranoside]	42.9 ± 0.3	105.8 ± 1	–	> 216	> 216	> 216	–	> 216	–	–	–	–	–	–
CCN(CC)CCCC(C)Nc1ccnc2cc(Cl)ccc12 (centres unmarked) [Chloroquine, reference compound]	–	–	0.0077	–	–	–	–	–	–	–	–	–	–	43.9

Further lines, with some results ahead:

IC50 [1, 8] [µM]	IC50 [5] [µM]	IC50 ([1]; D6, read-out: IC50(D6)) [µM]	Structure (SMILES)	IC50 [2] [µM]	IC50 ([3]; vero cells, MTT) [µM]	IC50 [4] [µM]	IC50 (vero cells) [µg/mL]	IC50 [6] [µM]	Interaction with the cytotoxic effect of oleanonic acid (2), in words (vero cells)	∑FIC 1:1 (vero cells)	∑FIC 1:3 (vero cells)	∑FIC 3:1 (vero cells)	in vitro antiplasmodial activity against 3D7, in words [7]	IC50 ([3]; Vero) [µM]
38.8 ± 0.5	76.7 ± 4	–	CC1(C)CC[C@]2(C(=O)O)CC[C@]3(C)C(=CC[C@@H]4[C@@]5(C)CCC(=O)C(C)(C)[C@@H]5CC[C@]43C)[C@@H]2C1 [Compound 2, oleanonic acid]	–	35.8 ± 1.3	1.4 ± 0.1	14.8	> 212	–	–	–	–	–	–
205 ± 3	179 ± 6	–	CC1(C)CC[C@]2(C(=O)O)CC[C@]3(C)C(=CC[C@@H]4[C@@]5(C)CC[C@@H](O)C(C)(C)[C@@H]5CC[C@]43C)C2C1 (stereo partly drawn) [Compound 3, 3-epi-oleanolic acid]	30.3 ± 2.6	58 ± 5.2	29.8 ± 0.3	22.5	36.54 ± 0.02	markedly antagonized	5.2 ^c	9.8 ^c	5.8 ^c	–	–
182 ± 6	> 219	–	CC(C)C12CCC3(CCC4(C)C(CCC5C6(C)CCC(=O)C(C)(C)C6CCC54C)C3O1)CO2 (centres unmarked) [Compound 5, ekeberin A]	163 ± 4.3	> 219	> 219	> 100	–	antagonized by high concentrations of ekeberin A (5), but at lower relative concentrations 5 enhanced the toxicity of 2	<1.4 ^c	<4 ^c	<1.3 ^c	–	–
